The source of these data is US20240116923A1, “USE OF INDOLE, 6- AND 7-AZAINDOLE DERIVATIVES AS INHIBITORS OF FERROPTOSIS REGULATED CELL DEATH” (Seabelife, priority 2021, published 2024).

Usually EC50 stands for the concentration needed to bring the measured effect to its halfway point.

The structures appear in SMILES notation. Read-outs that look alike come from different tables or passages of the source.

Format in all cases: cell-based
The subject of data set [1] is human neuroblastoma cell line SH-SY5Y. Nature of the data set: Neurotoxicity assay, SH-SY5Y cells + erastin or RSL3, MTS cell viability. The note with it: for EC50: Homo sapiens; for effect on cell viability without cell death inducers (potential cytotoxic effect of the molecule alone): doses tested maximum 50 or 100 μM; for concentration reaching almost total inhibition of induced cell death: in the presence of a ferroptosis inducer. As for the experimental part:
(§1) The excitotoxicity model used was the mouse hippocampal neuronal HT22 cells treated with glutamate [Dixon et al., Cell, 2012, 149(5), 1060-1072]. Ferroptosis and oxidative stress are both associated in this glutamate-induced cell death [Chu et al., Neural Regen. Res., 2020, 15(3), 528-536]. Phenotypic screening was also carried out with additional cell death inducers, erastin and RSL3 ((1S,3R)-Ras-selective lethal), in HT22 and SH-SY5Y (human neuroblastoma cells). Erastin and RSL3 are well described molecules, used as chemical tools for the study of ferroptosis regulation and neuronal pathologies [Lewerenz et al., Front. Neurosci., 2018, 12: 214; Reichert et al., Int. J. Mol. Sci., 2020, 21, 8765].
(§2) Mouse hippocampal neuronal cell line (HT22, ATCC) and human neuroblastoma cell line (SH-SY5Y, ATCC) were grown in Dulbecco's Modified Eagle Medium (DMEM, Gibco) supplemented with 10% fetal bovine serum (FBS, Gibco) at 37° C. under 5% CO2 atmosphere. Neurotoxicity was induced by erastin or RSL3 and excitotoxicity was induced by glutamate. Cells were seeded in 96-well plates at 5,000 and 10,000 cells/well for HT22 and SH-SY5Y cell lines, respectively. Cells were treated with 0.5-1 μM Erastin (HT22 cells) or 10 μM Erastin (SH-SY5Y cells) or 5-10 mM glutamate (HT22 cells) or 0.5 μM RSL3 (HT22 cells) or 5 μM RSL3 (SH-SY5Y cells) for 24 h in presence of increasing concentrations of inhibitors. Cells treated with DMSO only were used as controls. Cell viability was assessed by MTS assay (CellTiter 96 AQueous One Solution Cell Proliferation assay, Promega).
(§3) In FIGS. 1, 2A and 2B, an inhibitor was added to HT22 (FIG. 1: compound 6) or SH-SY5Y (FIG. 2A: compound 6; FIG. 2B: compound 25) cells in the presence or not of cell death inducers (erastin, glutamate or RSL3). […] EC50 values for compounds 1-28 were calculated from dose-response curves using Graphpad Prism software.

The subject of data set [2] is mouse hippocampal neuronal cell line HT22. Nature of the data set: Neurotoxicity and excitotoxicity assay, HT22 cells + glutamate, erastin or RSL3, MTS cell viability. The following applies: for EC50: Mus musculus. As for the experimental part: as §1, §2, §3
Another data set relates to Rat dopaminergic neurons. The experiment in a line: Protective effect after 6-OHDA injury on rat primary dopaminergic neurons survival (TH staining). The following applies: 6-OHDA 20 μM alone, 2 days, p<0.0001. As for the experimental part:
As explained in Ding et al., J Neurochem., 2004, (89), administration of 6-Hydroxydopamine (6-OHDA), a neurotoxin, has been widely used to cause the selective degeneration of dopamine (DA) neurons in in vitro and in vivo models. These models are used as Parkinson's disease models, which is characterized by the progressive loss of DA neurons of the substantia nigra.
Rat dopaminergic neurons were cultured as described by Schinelli et al., J Neurochem., 1988, 50(6). The cells were seeded at a density of 40 000 cells/well in 96 well-plates (precoated with poly-D-lysine; Greiner, Ref: 655940, Batch: E20093UL) and were cultured at 37° C. in a humidified air (95%)/CO2 (5%) atmosphere. Half of the medium was changed every 2 days with fresh medium. In these conditions, after 5 days of culture, astrocytes are present in the culture and release growth factor allowing neurons differentiation. In this condition, 2 to 5% of neurons are dopaminergic neurons.
6-OHDA (Sigma, Ref: 162957, Batch MKCK5243) was reconstituted in define culture medium at 40 μM (stock solution). The control medium was prepared in the same conditions. After 7 days of culture, primary mesencephalic neurons were pre-treated for 1 hour with test compounds or reference compound (BDNF, 50 ng/mL) and then intoxicated with 6-OHDA at a final concentration of 20 μM for 2 days incubation in order to induce a neuronal cell death of about 50%+/−5%.
After 2 days of intoxication in presence or absence of test compounds, cells were fixed by a solution of 4% paraformaldehyde (Sigma, ref 6148, Batch: SZBE2390V) for 20 min at room temperature, the control conditions were fixed as well following the same procedure. The cells were then permeabilized and nonspecific sites were blocked with a solution of phosphate buffered saline (PBS; PanBiotech; ref: P04-36500, Batch: 7701020) containing 0.1% of saponin (Sigma; ref: S7900, Batch: BCBL8667V) and 1% FCS for 15 min at room temperature. Cells were incubated with a mouse monoclonal anti-Tyrosine Hydroxylase (TH, 1/10 000, Sigma; ref: T1299, Batch: 014M4835) antibody in a solution of PBS overnight at 4° C. Antibody against TH stained dopaminergic neurons. […] Nuclei of cells were labelled by a fluorescent marker (Hoechst, Sigma; ref: B1155, Batch: 046M4048V) in the same solution. For each condition, 20 pictures per well were taken using InCell Analyzer™ 2200 (GE Healthcare) with 20× magnification. Images of each culture well were taken in same condition. Analysis of cell bodies of TH positive neurons was performed using Developer software (GE healthcare). A total of 6 data per experimental condition were provided.

Where [3] appears, read: SH-SY5Y cells, 5 μM RSL3, 24 h, MTS, read-out: EC50 SH-SY5Y RSL3.
The mark [4] stands for this setting: SH-SY5Y cells, 10 μM Erastin, 24 h, MTS, read-out: EC50 SH-SY5Y Erastin.
Setting [5] is: HT-22, HT22 cells, 0.5 μM RSL3, 24 h, MTS, read-out: EC50 HT22 RSL3.
Where [6] appears, read: HT-22, HT22 cells, 0.5-1 μM Erastin, 24 h, MTS, read-out: EC50 HT22 Erastin.
The mark [7] stands for this setting: HT-22, HT22 cells, 5-10 mM glutamate, 24 h, MTS, read-out: EC50 HT22 Glutamate.

On to `CCOc1ccc(-c2cc3ccc[n+]([O-])c3[nH]2)cc1` [Compound 23, 2-(4-ethoxyphenyl)-1H-pyrrolo[2,3-b]pyridine-7-oxide], for which the EC50 is 2640 nM in data set [1] (setting [3]); 26300 nM in data set [1] (setting [4]); 9.93 µM in data set [2] (setting [5]); above 25 µM in data set [2] (setting [6]); above 25 µM in data set [2] (setting [7]).

Turning to `CCOc1ccc(-c2cc3ccc(-c4cn[nH]c4)nc3[nH]2)cc1` [Compound 41, 2-(4-ethoxyphenyl)-6-(1H-pyrazol-4-yl)-1H-pyrrolo[2,3-b]pyridine], the EC50 was 2210 nM in data set [1] (setting [3]), 3680 nM in data set [1] (setting [4]) and 6.5 µM in data set [2] (setting [5]).

As to `Oc1ccc(-c2cc3ccc(Cl)nc3[nH]2)cc1` [Compound 37, 4-(6-chloro-1H-pyrrolo[2,3-b]pyridin-2-yl)phenol], the EC50 in data set [1] (setting [3]) was found to be 1220 nM; in data set [1] (setting [4]), 7130 nM; in data set [2] (setting [5]), 9.11 µM; in data set [2] (setting [6]) it was 11.8 µM.

Take `CCOc1ccc(-c2cc3cccn(Cc4ccc(OC)cc4)c-3n2)cc1` [Compound 27, 2-(4-ethoxyphenyl)-7-(4-methoxybenzyl)-7H-pyrrolo[2,3-b]pyridine]: the concentration giving a half-maximal response (EC50) was 2460 nM in data set [1] (setting [4]), 9.93 µM in data set [2] (setting [5]), 3.9 µM in data set [2] (setting [6]) and 1.5 µM in data set [2] (setting [7]).

For the compound `NCCc1cc(O)c(O)cc1O` [Compound 6-OHDA, 6-hydroxydopamine, reference compound], the “cellular death of dopaminergic neurons” value in the data set with Rat dopaminergic neurons was found to be 48%.

For `CCOc1ccc(-c2cc3c(Nc4ccccc4)ccnc3[nH]2)cc1` [Compound 14, 2-(4-ethoxyphenyl)-N-phenyl-1H-pyrrolo[2,3-b]pyridin-4-amine], the EC50 came to 1110 nM in data set [1] (setting [4]), 0.76 µM in data set [2] (setting [5]), 1.52 µM in data set [2] (setting [6]) and 0.55 µM in data set [2] (setting [7]).

On to `CCOc1ccc(-c2cc3cccn(C(=O)OCc4ccccc4)c-3n2)cc1` [Compound 25, benzyl 2-(4-ethoxyphenyl)-7H-pyrrolo[2,3-b]pyridine-7-carboxylate], for which the EC50 in data set [1] (setting [3]) worked out at 5250 nM; in data set [1] (setting [4]) it was 1400 nM; in data set [2] (setting [5]), 19 µM; in data set [2] (setting [6]), 3.39 µM; in data set [2] (setting [7]), 1.65 µM. In data set [1] (SH-SY5Y cells, 24 h), the “effect on cell viability without cell death inducers (potential cytotoxic effect of the molecule alone)” value was “no effect on cell viability”. In addition, the “concentration reaching almost total inhibition of induced cell death” value in data set [1] (SH-SY5Y cells) is 10 µM.

As for `CCOc1ccc(-c2cc3ccc(N)nc3[nH]2)cc1` [Compound 36, 2-(4-ethoxyphenyl)-1H-pyrrolo[2,3-b]pyridin-6-amine], the EC50 is 70 nM in data set [1] (setting [3]), 230 nM in data set [1] (setting [4]), 0.27 µM in data set [2] (setting [5]) and 0.32 µM in data set [2] (setting [6]).

Regarding `CCOc1ccc(-c2cc3c(-c4ccc(C(=O)c5ccccc5)cc4)ccn(Cc4ccccc4)c-3n2)cc1` [Compound 28, (4-(7-benzyl-2-(4-ethoxyphenyl)-7H-pyrrolo[2,3-b]pyridin-4-yl)phenyl)(phenyl)methanone], the EC50 in data set [1] (setting [3]) was found to be 15800 nM; in data set [1] (setting [4]), 31300 nM; in data set [2] (setting [5]), 17.3 µM; in data set [2] (setting [6]), 23.9 µM; in data set [2] (setting [7]), 14.8 µM.

`CC(C)(C)OC(=O)n1c(-c2ccc(O)cc2)cc2ccccc21` [Compound 29, tert-butyl 2-(4-hydroxyphenyl)-1H-indole-1-carboxylate]: the EC50 in data set [1] (setting [3]) was determined as 1460 nM; in data set [2] (setting [5]) it was 3.96 µM; in data set [2] (setting [6]), 8.3 µM; in data set [2] (setting [7]), 5.5 µM.

As for `CCOc1ccc(-c2cc3ccncc3n2OC(=O)N(CC)CC)cc1` [Compound 34, 2-(4-ethoxyphenyl)-1H-pyrrolo[2,3-c]pyridin-1-yl diethylcarbamate], the EC50 in data set [1] (SH-SY5Y, 24 h, read-out: EC50 SH-SY5Y RSL3) is 6620 nM; in data set [2] (HT-22, 24 h, read-out: EC50 HT22 Erastin), above 50 µM; in data set [2] (HT-22, 24 h, read-out: EC50 HT22 RSL3) it was 16.8 µM.

As to `CCOc1ccc(-c2cc3ccc(OC(C)=O)nc3[nH]2)cc1` [Compound 38], the EC50 in data set [1] (setting [3]) turned out to be 200 nM; in data set [1] (setting [4]), 1610 nM; in data set [2] (setting [5]), 2.56 µM; in data set [2] (setting [6]) it was 6.78 µM.

Consider `CCOc1ccc(-c2cc3ccc(Cc4ccncn4)nc3[nH]2)cc1` [Compound 42], for which the EC50 in data set [1] (setting [3]) came to 1840 nM; in data set [1] (setting [4]), 3620 nM; in data set [2] (setting [5]) it was 7.06 µM; in data set [2] (setting [6]), 8.04 µM.

For `CCOc1ccc(-c2cc3cccn(Cc4ccccc4)c-3n2)cc1` [Compound 26, 7-benzyl-2-(4-ethoxyphenyl)-7H-pyrrolo[2,3-b]pyridine], the EC50 in data set [1] (setting [3]) came out at 33700 nM; in data set [1] (setting [4]), 9940 nM; in data set [2] (setting [6]), 12.7 µM; in data set [2] (setting [7]), 0.82 µM.

Turning to `CCOc1ccc(-c2cc3c(Nc4ccccc4)ccnc3n2S(=O)(=O)c2ccccc2)cc1` [Compound 43, 2-(4-ethoxyphenyl)-N-phenyl-1-(phenylsulfonyl)-1H-pyrrolo[2,3-b]pyridin-4-amine], the EC50 in data set [1] (setting [3]) was determined as 1350 nM; in data set [1] (setting [4]), 1640 nM; in data set [2] (setting [5]) it was 2.35 µM; in data set [2] (setting [6]), 0.53 µM.

Consider `CCOc1ccc(-c2cc3ccncc3n2OC(=O)c2ccccc2)cc1` [Compound 6, 2-(4-ethoxyphenyl)-1H-pyrrolo[2,3-c]pyridin-1-yl benzoate], for which the EC50 was 180 nM in data set [1] (setting [4]), 2.31 µM in data set [2] (setting [5]), 2.05 µM in data set [2] (setting [6]) and 1.64 µM in data set [2] (setting [7]). The “effect on cell viability without cell death inducers (potential cytotoxic effect of the molecule alone)” value in data set [1] (SH-SY5Y cells, 24 h) was “no effect on cell viability”; in data set [2] (HT22 cells, 24 h, doses tested maximum 50 or 100 μM) it was “no effect on cell viability”. Also, the “concentration reaching almost total inhibition of induced cell death” value in data set [1] (SH-SY5Y cells) was 1 µM; in data set [2] (HT22 cells, in the presence of a ferroptosis inducer), 10 µM.
